Laboratory results published in publication PMC8297771 (PLoS Pathogens, 2021).
Entries after “also recorded” stand apart in the source; their conditions may differ. Like-named read-outs stand apart in the source and are kept apart here.

Experiments:
[1] = system: human PBMCs; experiment: Tissue culture cytotoxicity measurement in human PBMCs; format: cell-based
From the text: Multiple chemical scaffolds such as quinoline (BI224436, Fig 1A), benzothiazole (GS-9822, Fig 1B) and pyridine (KF116, Fig 1C) were previously explored for the discovery of ALLINIs. Here, we employed the pyrrolopyridine-based scaffold to synthesize an ALLINI candidate compound, STP0404 (Fig 1D). STP0404 harbors the tert-butoxy moiety that is common to other ALLINIs (Fig 1). First, we measured its in vitro anti-HIV-1 efficacy and cytotoxicity using various HIV-1 strains in multiple cell types, with cytotoxicity initially tested up to 10 μM (Table 1). […] The calculated in vitro minimum therapeutic index (TI) of STP0404 under these conditions was accordingly >25,000. For comparison, we employed two FDA-approved HIV-1 inhibitors, AZT (RT inhibitor) and Raltegravir (Ral, INSTI), alongside 5 different Ral-resistant clinical isolates (Table 1).

[2] = In vivo pharmacokinetics in SD rats; settings: Sprague-Dawley, plasma, Rat
Description: Study design: […]). Group 1 was dosed with STP0404 at 1 mg/kg by single intravenous administration. […] The vehicle used for IV study was DMSO: PEG400: […] Blood samples were collected at 0.0833, 0.25, 0.5, 1, 2, 4, 8, 12 (only for PO groups) and 24 hrs post-dose for Groups 1 to 4. STP0404 concentrations in plasma samples were determined by LC-MS/MS. Preclinical Dog pharmacokinetics study (Study no. 400751-2015020201-DPK): A total of 6 male Beagle dogs were divided into two groups (3 animals/group). Following single STP0404 2 mg/kg oral and intravenous administration to Beagle Dogs, STP0404 concentration was determined in plasma, and pharmacokinetic parameters were calculated. […] The concentrations of STP0404 in plasma were determined by using a LC/MS/MS method.

[3] = Four-week oral dose toxicology study in rats (GLP); set-up: species or system SD rats; settings: Sprague-Dawley, rat, in vivo, read-out: no-observed-adverse-effect level (NOAEL)
Description: STP0404 was administered orally to 10 or 15 SD rats/sex/group at dose levels of 100, 300 and 600 mg/kg/day for 4 weeks to evaluate its potential toxicity. The reversibility of any effects was also assessed following a 2-week untreated recovery period. Control animals (15 animals/sex) received the vehicle, 0.5 w/v% methylcellulose solution, in a similar manner for comparison. In addition, plasma STP0404 concentrations were determined using TK satellite animals (3 animals/sex/group) to evaluate systemic exposure of the animals to the test article. (Study no. YL18402). STP0404 was administered orally as a capsule to 4 or 6 dogs/sex/group at dose levels of 30, 60 and 90 mg/kg/day for 4 weeks to evaluate its potential toxicity. Control animals (6 animals/sex) received empty gelatin capsules in a similar manner for comparison. The reversibility of any effects was also assessed following a 2-week untreated recovery period (2 animals/sex/group for the control and 90 mg/kg/day groups). In addition, plasma STP0404 concentrations were determined using all tested animals (including control group) to evaluate systemic exposure of the animals to the test article (Study no. YL18403). The test was performed according to the Standard Operating Procedures (SOP) the Good Laboratory Practice (GLP) system of the INA Research.

[4] = system: HIV-1_89.6; experiment: In vitro anti-viral assay in CEMx174 cells (p24); format: cell-based
Description: (§1) CEMx174 cells were infected with HIV-1 primary isolate 89.6 (From infectious clone p89.6, NIH AIDS Reagent Program) at approximately at 10% of cell population determined by FACS analyses. To determine antiviral activity during virus production, STP0404 was added at concentration in the range of 0.1 nM—10 μM during media exchange at 4 hrs post-infection. DMSO was used as a negative control. Cell-free supernatants were measured for p24 antigen production, 5 days post-infection. The anti-HIV-1 efficacy of the two enantiomers of STP0404 were also determined by using the same protocol. All assays were conducted in triplicates. The IC50 values were computed using GraphPad Prism (Version 9) and presented as means ± S.D. of the triplicates. For SIVmac239, CEMx174 cells were infected with viral supernatant containing SIVmac293 at 50,000 TCID50/mL (kind gift from Dr. G. Silvestri, Emory Yerkes National Primate Research Center) with 100 μL/10^6 cells at varying concentrations of STP0404, BI224436, and Raltegravir, and the same above protocol was followed except for that p27 capsid antigen content was measured daily for 5 days post infection.

[5] = system: SIVmac239; experiment: In vitro efficacy test against SIVmac239 in CEMx174 cells (p27); format: cell-based, SIV; settings: p27 assay
Description: as §1, with “The IC50 values were computed using GraphPad Prism (Version 9) and presented as means ± S.D. of the triplicates.” left out
Supplementary file ppat.1009671.s004.tiff: S1 Fig In vitro efficacy tests of STP0404, BI224436 and Raltegravir against SIVmac239 in CEMx174 cell culture. CEMx174 cells were infected with SIVmac239 with various concentrations of STP0404, BI224436, and Raltegravir, and the viral production was determined by p27 assay at 5 days post infection. […]

[6] = In vivo pharmacokinetics, summary over rats and dogs; set-up: species or system SD rats and beagle dogs; settings: Sprague-Dawley (rat), beagle (dog), plasma, range over rats and dogs
Description: Study design: […]). Group 1 was dosed with STP0404 at 1 mg/kg by single intravenous administration. Groups 2 to 4 were dosed with STP0404 at 20, 40 and 80 mg/kg, respectively, by single oral administration. The vehicle used for IV study was DMSO: PEG400: […] Blood samples were collected at 0.0833, 0.25, 0.5, 1, 2, 4, 8, 12 (only for PO groups) and 24 hrs post-dose for Groups 1 to 4. STP0404 concentrations in plasma samples were determined by LC-MS/MS. Preclinical Dog pharmacokinetics study (Study no. 400751-2015020201-DPK): A total of 6 male Beagle dogs were divided into two groups (3 animals/group). Following single STP0404 2 mg/kg oral and intravenous administration to Beagle Dogs, STP0404 concentration was determined in plasma, and pharmacokinetic parameters were calculated. […] The concentrations of STP0404 in plasma were determined by using a LC/MS/MS method.

[7] = Human immunodeficiency virus 1, CEMx174

For `Cc1nc2c(c(C)c(C)n2Cc2cnn(C)c2)c(-c2ccc(Cl)cc2)c1[C@H](OC(C)(C)C)C(=O)O` [STP0404], the TC50 ([1]; human) was >10,000 nM, the TC50 ([1]; human PBMCs, NL4-3, tested up to 10 μM) was >10,000 nM and the TC50 ([1]; human PBMCs, no observable cytotoxicity at 10 μM) was over 10 µM. For the same compound, the AUC ([2]; iv, 5 mg/kg (i.v)) was 42.7 µM·h, the half-life ([2]; iv, 5 mg/kg (i.v)) was 3.83 h and the AUC ([2]; po, 10 mg/kg (p.o)) was 78 µM·h. For the same compound, the Cmax ([2]; po, 10 mg/kg (p.o)) was 21.4 µM, the half-life ([2]; po, 10 mg/kg (p.o)) was 4.56 h and the bioavailability ([2]; po, 10 mg/kg (p.o), read-out: Ft (oral bioavailability)) was 92.8%. The NOAEL at 4 weeks ([3]; female rats) was 600 mg/kg/day, the NOAEL at 4 weeks ([3]; male rats) was 300 mg/kg/day and the “TI (TC50 / IC50)” value ([4]; HIV-1 89.6 / CEMx174 cells) was > 7,140. The IC50 [4, 7] was 0.0014 µM, the IC90 [4, 7] was 0.021 µM and the “inhibition of SIVmac239” value [5] was “did not inhibit; also recorded: failed to inhibit”. It also gave a half-life ([6]; intravenous, oral, read-out: half-life (T1/2)) of 3 to 7 h and a bioavailability ([6]; po, read-out: oral bioavailability (Ft)) of 50 to 93%.
